Experimental data from patent publication US20220023401A1 (priority 2020, published 2022).
Where “and” joins values, the source holds several entries; their conditions need not be identical. Equal values may be shown once.

Key:
[1] = test system: sera from vaccinated baboons (anti-Aβ antibodies); format: binding
[2] = test system: antisera from immunized Cynomolgus macaques; format: binding; design: unit not given here
[3] = test system: Peripheral Blood Mononuclear Cells (PBMCs); format: cell-based, Cynomolgus macaque
[4] = test system: Peripheral blood mononuclear cells (PBMC); format: cell-based, human
[5] = test system: Peripheral blood mononuclear cells (PBMC); format: cell-based, human; remark: listed apart in the source
baboon anti-Aβ antibody = format: binding, baboons
Aβ1-42 = test system: Aβ1-42; design: species or system guinea pigs; details: guinea pig, in vivo
MvF4 Th (SEQ ID NO: 44) = test system: MvF4 Th (SEQ ID NO: 44); design: species or system guinea pigs; details: guinea pig, in vivo
[6] = test system: HBsAg2 Th (SEQ ID NO: 45); design: species or system guinea pigs; details: guinea pig, in vivo

SEVKMDAEFR (PEPTIDE (1)..(10) Abeta -5-5 or APP 770(S667-R676); listed as Homo sapiens) [SEQ ID NO: 12]
ELISA Titer (Log10) [1]: 0.21 Log10 and 0.24 Log10 and 0.16 Log10 and 0.13 Log10
Specificity analysis of antisera (ELISA reactivity with peptide) [2]: 0.056 and 0.053 and 0.054 and 0.050

FRHDSGYEVH (PEPTIDE (1)..(10) Abeta 4-13 or APP 770(F675-H684); listed as Homo sapiens) [SEQ ID NO: 19]
ELISA Titer (Log10) [1]: 0.20 Log10 and 0.40 Log10 and 0.22 Log10 and 0.30 Log10
Specificity analysis of antisera (ELISA reactivity with peptide) [2]: 0.085 and 0.076 and 0.066 and 0.096

phytohaemagglutinin [PHA]
IL-2 cytokine concentration [3]: 97.5 ± 6.6 pg/mL and 90.6 ± 12.4 pg/mL and 96.1 ± 13.3 pg/mL
IL-6 cytokine concentration [3]: 69.1 ± 12.0 pg/mL and 70.6 ± 15.7 pg/mL and 66.2 ± 7.3 pg/mL
TNF-α cytokine concentration [3]: 91.0 ± 29.1 pg/mL and 96.1 ± 22.2 pg/mL and 89.0 ± 13.7 pg/mL
Mean stimulation index, Difference [4]: −0.98
Mean stimulation index, Week 0 [4]: 28.73
Mean stimulation index, Week 16 [4]: 27.75
proliferation response by lymphocytes when added to the culture medium ([4]; 10 μg/mL): positive proliferation responses
IFN-γ mean cytokine concentration, Week 0 [5]: >320.00 pg/mL
IFN-γ mean cytokine concentration, Week 16 [5]: >318.91 pg/mL
IL-2 mean cytokine concentration, Week 0 [5]: 10.38^7 pg/mL
IL-2 mean cytokine concentration, Week 16 [5]: 12.84^7 pg/mL
IL-6 mean cytokine concentration, Week 0 [5]: >320.00 pg/mL
IL-6 mean cytokine concentration, Week 16 [5]: >320.00 pg/mL
IL-10 mean cytokine concentration, Week 0 [5]: 173.83 pg/mL
IL-10 mean cytokine concentration, Week 16 [5]: >162.77 pg/mL
TNF-α mean cytokine concentration, Week 0 [5]: >313.01 pg/mL
TNF-α mean cytokine concentration, Week 16 [5]: >300.87 pg/mL

HQKLVFFAED (PEPTIDE (1)..(10) Abeta 14-23 or APP 770(H685-D694); listed as Homo sapiens) [SEQ ID NO: 29]
ELISA Titer (Log10) [1]: 0.18 Log10 and 0.21 Log10 and 0.13 Log10
Specificity analysis of antisera (ELISA reactivity with peptide) [2]: 0.050 and 0.058 and 0.047

GYEVHHQKLV (PEPTIDE (1)..(10) Abeta 9-18 or APP 770(G680-V689); listed as Homo sapiens) [SEQ ID NO: 24]
ELISA Titer (Log10) [1]: 0.13 Log10 and 0.27 Log10 and 0.19 Log10 and 0.12 Log10
Specificity analysis of antisera (ELISA reactivity with peptide) [2]: 0.055 and 0.067 and 0.052 and 0.059

EFRHDSGYEV (PEPTIDE (1)..(10) Abeta 3-12 or APP 770(E674-V683); listed as Homo sapiens) [SEQ ID NO: 18]
ELISA Titer (Log10) [1]: 0.24 Log10 and 0.30 Log10 and 0.18 Log10
Percent (%) Inhibition ELISA after peptide pre-absorption of sera (baboon anti-Aβ antibody): 0% and 1% and 3%
Specificity analysis of antisera (ELISA reactivity with peptide) [2]: 0.047 and 0.060 and 0.042 and 0.052

HDSGYEVHHQ (PEPTIDE (1)..(10) Abeta 6-15 or APP 770(H677-Q686); listed as Homo sapiens) [SEQ ID NO: 21]
Specificity analysis of antisera (ELISA reactivity with peptide) [2]: 0.266 and 0.494 and 0.419 and 0.332

ISEVKMDAEF (PEPTIDE (1)..(10) Abeta -6-4 or APP 770(I666-F675); listed as Homo sapiens) [SEQ ID NO: 11]
ELISA Titer (Log10) [1]: 0.20 Log10 and 0.15 Log10 and 0.13 Log10
Specificity analysis of antisera (ELISA reactivity with peptide) [2]: 0.055 and 0.058 and 0.063 and 0.062

QKLVFFAEDV (PEPTIDE (1)..(10) Abeta 15-24 or APP 770(Q686-V695); listed as Homo sapiens) [SEQ ID NO: 30]
Specificity analysis of antisera (ELISA reactivity with peptide) [2]: 0.043 and 0.055 and 0.062 and 0.059

Aβ1-14-ϵK-HBsAg2 Th [SEQ ID NO: 63]
Aβ1-42 ELISA (SEQ ID NO: 1) Log10 Titer (Aβ1-42): 3.596 Log10 and 3.653 Log10 and 3.696 Log10 and 3.681 Log10 and 3.836 Log10 and 3.744 Log10
Aβ1-42 ELISA (SEQ ID NO: 1) Log10 Titer, Geomean (Aβ1-42): 3.700 Log10
MvF4 Th ELISA (SEQ ID NO: 44) Log10 Titer (MvF4 Th (SEQ ID NO: 44)): 0.575 Log10 and 0.423 Log10 and 0.380 Log10 and 0.279 Log10 and 0.336 Log10 and 0.425 Log10
MvF4 Th ELISA (SEQ ID NO: 44) Log10 Titer, Geomean (MvF4 Th (SEQ ID NO: 44)): 0.393 Log10
reactivity against the two T helper epitopes (SEQ ID NOs: 44 and 45) (MvF4 Th (SEQ ID NO: 44)): little or no reactivity
HBsAg2 Th ELISA (SEQ ID NO: 45) Log10 Titer, Geomean [6]: 0.375 Log10

Aβ1-14-ϵK-KKK-MvF4 Th [SEQ ID NO: 62]
Aβ1-42 ELISA (SEQ ID NO: 1) Log10 Titer, Geomean (Aβ1-42): 4.208 Log10
MvF4 Th ELISA (SEQ ID NO: 44) Log10 Titer (MvF4 Th (SEQ ID NO: 44)): 0.268 Log10 and 0.216 Log10 and 0.196 Log10 and 0.179 Log10 and 0.332 Log10 and 0.286 Log10
MvF4 Th ELISA (SEQ ID NO: 44) Log10 Titer, Geomean (MvF4 Th (SEQ ID NO: 44)): 0.240 Log10
reactivity against the two T helper epitopes (SEQ ID NOs: 44 and 45) (MvF4 Th (SEQ ID NO: 44)): little or no reactivity
HBsAg2 Th ELISA (SEQ ID NO: 45) Log10 Titer, Geomean [6]: 0.397 Log10

EVKMDAEFRH (PROPEP (1)..(10) Abeta -4-6 or APP 770(E668-H677); listed as Homo sapiens) [SEQ ID NO: 13]
ELISA Titer (Log10) [1]: 0.19 Log10 and 0.23 Log10 and 0.16 Log10 and 0.14 Log10
Specificity analysis of antisera (ELISA reactivity with peptide) [2]: 0.046 and 0.047 and 0.054

SGYEVHHQKL (PEPTIDE (1)..(10) Abeta 8-17 or APP 770(S679-L688); listed as Homo sapiens) [SEQ ID NO: 23]
Specificity analysis of antisera (ELISA reactivity with peptide) [2]: 0.097 and 0.071 and 0.077 and 0.082

EISEVKMDAE (PEPTIDE (1)..(10) Abeta -7-3 or APP 770(E665-E674); listed as Homo sapiens) [SEQ ID NO: 10]
ELISA Titer (Log10) [1]: 0.23 Log10 and 0.25 Log10 and 0.16 Log10 and 0.14 Log10
Specificity analysis of antisera (ELISA reactivity with peptide) [2]: 0.060 and 0.056 and 0.064 and 0.053

VKMDAEFRHD (PEPTIDE (1)..(10) Abeta -3-7 or APP 770(V669-D678); listed as Homo sapiens) [SEQ ID NO: 14]
ELISA Titer (Log10) [1]: 0.27 Log10 and 0.46 Log10 and 0.48 Log10 and 0.55 Log10
Specificity analysis of antisera (ELISA reactivity with peptide) [2]: 0.068 and 0.053 and 0.061 and 0.054

YEVHHQKLVF (PEPTIDE (1)..(10) Abeta 10-19 or APP 770(Y681-F690); listed as Homo sapiens) [SEQ ID NO: 25]
ELISA Titer (Log10) [1]: 0.16 Log10 and 0.43 Log10 and 0.15 Log10 and 0.22 Log10
Specificity analysis of antisera (ELISA reactivity with peptide) [2]: 0.092 and 0.069 and 0.058

KMDAEFRHDS (PEPTIDE (1)..(10) Abeta -2-8 or APP 770(K670-S679); listed as Homo sapiens) [SEQ ID NO: 15]
ELISA Titer (Log10) [1]: 0.26 Log10 and 0.36 Log10 and 0.41 Log10 and 0.51 Log10

MDAEFRHDSG (PEPTIDE (1)..(10) Abeta -1-9 or APP 770(M671-G680); listed as Homo sapiens) [SEQ ID NO: 16]
ELISA Titer (Log10) [1]: 0.26 Log10 and 0.32 Log10 and 0.16 Log10 and 0.17 Log10
Percent (%) Inhibition ELISA after peptide pre-absorption of sera (baboon anti-Aβ antibody): 8%
Specificity analysis of antisera (ELISA reactivity with peptide) [2]: 0.056 and 0.061 and 0.051

RHDSGYEVHH (PEPTIDE (1)..(10) Abeta 5-14 or APP 770(R676-H685); listed as Homo sapiens) [SEQ ID NO: 20]
ELISA Titer (Log10) [1]: 0.23 Log10 and 0.34 Log10 and 0.27 Log10 and 0.41 Log10
Specificity analysis of antisera (ELISA reactivity with peptide) [2]: 0.296 and 0.400 and 0.453 and 0.461

HHQKLVFFAE (PEPTIDE (1)..(10) Abeta 13-22 or APP 770(H684-E693); listed as Homo sapiens) [SEQ ID NO: 28]
ELISA Titer (Log10) [1]: 0.19 Log10 and 0.22 Log10 and 0.13 Log10 and 0.12 Log10
Specificity analysis of antisera (ELISA reactivity with peptide) [2]: 0.044 and 0.052 and 0.046 and 0.032

AEFRHDSGYE (PEPTIDE (1)..(10) Abeta 2-11 or APP 770(A673-E682); listed as Homo sapiens) [SEQ ID NO: 17]
ELISA Titer (Log10) [1]: 0.25 Log10 and 0.35 Log10 and 0.19 Log10
Percent (%) Inhibition ELISA after peptide pre-absorption of sera (baboon anti-Aβ antibody): 0%
Specificity analysis of antisera (ELISA reactivity with peptide) [2]: 0.058 and 0.059 and 0.054 and 0.060

TEEISEVKMD (PEPTIDE (1)..(10) Abeta -9-1 or APP 770(T663-D672); listed as Homo sapiens) [SEQ ID NO: 8]
ELISA Titer (Log10) [1]: 0.23 Log10 and 0.26 Log10 and 0.16 Log10 and 0.15 Log10
Specificity analysis of antisera (ELISA reactivity with peptide) [2]: 0.075 and 0.084 and 0.061 and 0.078

EEISEVKMDA (PEPTIDE (1)..(10) Abeta -8-2 or APP 770(E664-A673); listed as Homo sapiens) [SEQ ID NO: 9]
ELISA Titer (Log10) [1]: 0.24 Log10 and 0.30 Log10 and 0.21 Log10 and 0.22 Log10
Specificity analysis of antisera (ELISA reactivity with peptide) [2]: 0.082 and 0.092 and 0.081 and 0.076
